From patent US12404242B2, “Compositions and methods for making and using small molecules in the treatment of cancer” (Reglagene, Inc., priority 2021, dated 2025)

Assays:
Type in all cases: cell-based, human
Conditions in all cases: 72 hours of treatment
22RV1 cells = test: Cell viability (AlamarBlue), 22RV1 prostate cancer cells; set-up: key to EC50 (μM) in 22RV1 cells: Inactive: less than 50% inhibition at the highest concentration tested at 50 μM
Experimental: (§1) In another exemplary method, half maximal effective concentration (EC50) was determined for some compounds and their isomers as disclosed herein in a variety of human cancer cell lines. In brief, cells from two prostate cancer cell lines (LNCaP, 22RV1), one glioblastoma cell line (U87), one breast cancer cell line (MCF7), a glioma cell line (LN18), a normal prostate cell line (RWPE1), and a glioblastoma cell line (T98G) were plated in a multi-well plate. After 24 hours, one of the compounds herein was added to the well at increasing concentrations. After 72 hours of treatment, cell viability was assessed using AlamrBlue® (Invitrogen) and fluorescence was read using the CLARIOstar Plus Multilabel Plate Reader (BMG Labtech). Samples were normalized to no treatment controls. EC50 values were determined using GraphPad Prism.

LNCaP cells = test: Cell viability (AlamarBlue), LNCaP prostate cancer cells; set-up: key to EC50 (μM) in LNCaP cells: Inactive: less than 50% inhibition at the highest concentration tested at 50 μM
Experimental: as §1

U87 cells = test: Cell viability (AlamarBlue), U87 glioblastoma cells; set-up: key to EC50 (μM) in U87 cells: Inactive: less than 50% inhibition at the highest concentration tested at 50 μM
Experimental: as §1

SMILES | EC50 (μM) in 22RV1 cells (22RV1 cells) | EC50 (μM) in LNCaP cells (LNCaP cells) | EC50 (U87 cells; Homo sapiens, U-87 MG, 72 h) [µM] | EC50 (μM) in U87 cells (U87 cells) | also measured
Cc1cc(NC(=O)NC(=O)C2CCOC2)ccc1Oc1ncc(Cl)cn1 (racemic) [Compound 5, rac-1-{4-[(5-chloropyrimidin-2-yl)oxy]-3-methylphenyl}-3-[(3R)-oxolane-3-carbonyl]urea] | Inactive | Inactive | – | – | –
COC1CCC(C(=O)NC(=O)Nc2ccc(Oc3ncc(C)cn3)c(C)c2)CC1 (single isomer, unassigned) [Compound 27A, 4-methoxy-N-((3-methyl-4-((5-methylpyrimidin-2-yl)oxy)phenyl)carbamoyl)cyclohexane-1-carboxamide] | – | – | – | – | EC50 (U87 cells): 2.1 µM; EC50 (22RV1 cells): 2.8 µM; EC50 (LNCaP cells): 1.3 µM
COC1CCC(C(=O)NC(=O)Nc2ccc(Oc3ncc(C)cn3)c(C)c2)CC1 (single isomer, unassigned) [Compound 27B, 4-methoxy-N-((3-methyl-4-((5-methylpyrimidin-2-yl)oxy)phenyl)carbamoyl)cyclohexane-1-carboxamide] | – | – | – | – | EC50 (U87 cells): 23.3 µM; EC50 (22RV1 cells): 25 µM; EC50 (LNCaP cells): 9.8 µM
COC1CCC(C(=O)NC(=O)Nc2ccc(Oc3ccc(C(C)C)cn3)c(C)c2)CC1 (single isomer, unassigned) [Compound 34A, N-((4-((5-isopropylpyridin-2-yl)oxy)-3-methylphenyl)carbamoyl)-4-methoxycyclohexane-1-carboxamide] | – | – | 5.5 | – | EC50 (22RV1 cells; Homo sapiens, 22Rv1, 72 h): 5.9 µM; EC50 (LNCaP cells; Homo sapiens, LNCaP, 72 h): 1.2 µM
COC1CCC(C(=O)NC(=O)Nc2ccc(Oc3ccc(C(C)C)cn3)c(C)c2)CC1 (single isomer, unassigned) [Compound 34B, N-((4-((5-isopropylpyridin-2-yl)oxy)-3-methylphenyl)carbamoyl)-4-methoxycyclohexane-1-carboxamide] | Inactive | Inactive | – | Inactive | –
Cc1cc(NC(=O)NC(=O)C2CCCC2)ccc1Oc1ncc(Cl)cn1 [Compound 3, 1-{4-[(5-chloropyrimidin-2-yl)oxy]-3-methylphenyl}-3-cyclopentanecarbonylurea] | Inactive | Inactive | – | – | –
Cc1cc(NC(=O)NC(=O)C2CCOCC2)ccc1Oc1ncc(Cl)cn1 [Compound 4, 3-{4-[(5-chloropyrimidin-2-yl)oxy]-3-methylphenyl}-1-(oxane-4-carbonyl)urea] | Inactive | Inactive | – | – | –
COC1CCC(C(=O)NC(=O)Nc2ccc(Oc3nccn3C)c(C)c2)CC1 (centres unmarked) [Compound 28, 1-(4-methoxycyclohexanecarbonyl)-3-{3-methyl-4-[(1-methyl-1H-imidazol-2-yl)oxy]phenyl}urea] | Inactive | Inactive | – | Inactive | –
COC1CCC(C(=O)NC(=O)Nc2ccc(Oc3ncc(C(F)(F)F)cn3)c(C)c2)CC1 (centres unmarked) [Compound 29, 1-(4-methoxycyclohexanecarbonyl)-3-(3-methyl-4-{[5-(trifluoromethyl)pyrimidin-2-yl)oxy}phenyl)urea] | – | – | 5.3 | – | EC50 (22RV1 cells; Homo sapiens, 22Rv1, 72 h): 4.7 µM; EC50 (LNCaP cells; Homo sapiens, LNCaP, 72 h): 6.5 µM
COC1CCC(C(=O)NC(=O)Nc2ccc(Oc3ncc(C(C)C)cn3)c(C)c2)CC1 (centres unmarked) [Compound 30, 1-(4-methoxycyclohexanecarbonyl)-3-(3-methyl-4-{[5-(propan-2-yl)pyrimidin-2-yl)oxy}phenyl)urea] | – | – | 12.2 | – | EC50 (22RV1 cells; Homo sapiens, 22Rv1, 72 h): 14.4 µM; EC50 (LNCaP cells; Homo sapiens, LNCaP, 72 h): 8.5 µM
COC1CCC(C(=O)NC(=O)Nc2ccc(Oc3ccc(C)cn3)c(C)c2)CC1 (centres unmarked) [Compound 32, 1-(4-methoxycyclohexanecarbonyl)-3-{3-methyl-4-[(5-methylpyridin-2-yl)oxy]phenyl}urea] | – | – | – | Inactive | EC50 (22RV1 cells; Homo sapiens, 22Rv1, 72 h): 35 µM; EC50 (LNCaP cells; Homo sapiens, LNCaP, 72 h): 34 µM
COC1CCC(C(=O)NC(=O)Nc2ccc(Oc3ccc(C(F)(F)F)cn3)c(C)c2)CC1 (centres unmarked) [Compound 33, 4-methoxy-N-((3-methyl-4-((5-(trifluoromethyl)pyridin-2-yl)oxy)phenyl)carbamoyl)cyclohexane-1-carboxamide] | Inactive | Inactive | – | Inactive | –
COC1CC(C(=O)NC(=O)Nc2ccc(Oc3cnc(N4CCN(C)CC4)nc3)c(C)c2)C1 (centres unmarked) [Compound 35, 3-methoxy-N-((3-methyl-4-((2-(4-methylpiperazin-1-yl)pyrimidin-5-yl)oxy)phenyl)carbamoyl)cyclobutane-1-carboxamide] | Inactive | Inactive | 49 | – | –
COC1CCC(C(=O)NC(=O)Nc2ccc(Oc3cnc(N4CCN(C)CC4)nc3)c(C)c2)CC1 (centres unmarked) [Compound 36, 4-methoxy-N-((3-methyl-4-((2-(4-methylpiperazin-1-yl)pyrimidin-5-yl)oxy)phenyl)carbamoyl)cyclohexane-1-carboxamide] | – | – | 31 | – | EC50 (22RV1 cells; Homo sapiens, 22Rv1, 72 h): 34 µM; EC50 (LNCaP cells; Homo sapiens, LNCaP, 72 h): 34 µM
O=C(NC(=O)C1CCC(OCC2CC2)CC1)Nc1ccc(Oc2ncc(Cl)cn2)c(F)c1 (centres unmarked) [Compound 37, N-((4-((5-chloropyrimidin-2-yl)oxy)-3-fluorophenyl)carbamoyl)-4-(cyclopropylmethoxy)cyclohexane-1-carboxamide] | Inactive | Inactive | – | Inactive | –
Cc1cc(NC(=O)NC(=O)C2CCC(OCC3CC3)CC2)ccc1Oc1ncc(Cl)cn1 (centres unmarked) [Compound 38, N-((4-((5-chloropyrimidin-2-yl)oxy)-3-methylphenyl)carbamoyl)-4-(cyclopropylmethoxy)cyclohexane-1-carboxamide] | Inactive | Inactive | – | Inactive | –
Cc1cc(NC(=O)NC(=O)C2CC(OCC3CC3)C2)ccc1Oc1nccs1 (centres unmarked) [Compound 39, 3-(cyclopropylmethoxy)-N-((3-methyl-4-(thiazol-2-yloxy)phenyl)carbamoyl)cyclobutane-1-carboxamide] | Inactive | Inactive | – | Inactive | –
COC1(C(=O)NC(=O)Nc2ccc(Oc3ccc(Cl)cn3)c(C)c2)CC1 [Compound 65, N-((4-((5-chloropyridin-2-yl)oxy)-3-methylphenyl)carbamoyl)-1-methoxycyclopropane-1-carboxamide] | Inactive | – | – | Inactive | –
COC1CC(C(=O)NC(=O)Nc2cc(C)c(Oc3ccc(F)cn3)c(F)c2)C1 (centres unmarked) [Compound 72, N-((3-fluoro-4-((5-fluoropyridin-2-yl)oxy)-5-methylphenyl)carbamoyl)-3-methoxycyclobutane-1-carboxamide] | – | – | 1.1 | – | EC50 (22RV1 cells; Homo sapiens, 22Rv1, 72 h): 0.91 µM
COC1CC(C(=O)NC(=O)Nc2cc(C)c(Oc3ncccn3)c(F)c2)C1 (centres unmarked) [Compound 74, N-((3-fluoro-5-methyl-4-(pyrimidin-2-yloxy)phenyl)carbamoyl)-3-methoxycyclobutane-1-carboxamide] | – | – | 2.5 | – | EC50 (22RV1 cells; Homo sapiens, 22Rv1, 72 h): 1.65 µM
COC1CCC(C(=O)NC(=O)Nc2ccc(Oc3ccc(C4CC4)cn3)c(C)c2)CC1 (centres unmarked) [Compound 75, N-((4-((5-cyclopropylpyridin-2-yl)oxy)-3-methylphenyl)carbamoyl)-4-methoxycyclohexane-1-carboxamide] | – | – | – | Inactive | –
COC1CC(C(=O)NC(=O)Nc2cc(C)c(Oc3nccs3)c(F)c2)C1 (centres unmarked) [Compound 77, N-((3-fluoro-5-methyl-4-(thiazol-2-yloxy)phenyl)carbamoyl)-3-methoxycyclobutanecarboxamide] | – | – | 22 | – | –
COC1CC(C)(C(=O)NC(=O)Nc2ccc(Oc3ccc(Cl)cn3)c(C)c2)C1 (centres unmarked) [Compound 79, N-((4-((5-chloropyridin-2-yl)oxy)-3-methylphenyl)carbamoyl)-3-methoxy-1-methylcyclobutane-1-carboxamide] | – | – | – | Inactive | –
Cc1cc(NC(=O)NC(=O)C2CC(O)C2)ccc1Oc1ccc(Cl)cn1 (centres unmarked) [Compound 80, N-((4-((5-chloropyridin-2-yl)oxy)-3-methylphenyl)carbamoyl)-3-hydroxycyclobutane-1-carboxamide] | – | – | – | Inactive | –
COC1CC1C(=O)NC(=O)Nc1ccc(Oc2ncc(Cl)cn2)c(C)c1 (centres unmarked) [Compound 81, N-((4-((5-chloropyrimidin-2-yl)oxy)-3-methylphenyl)carbamoyl)-2-methoxycyclopropane-1-carboxamide] | – | – | – | Inactive | –
COC1CC1C(=O)NC(=O)Nc1ccc(Oc2ccc(Cl)cn2)c(C)c1 (centres unmarked) [Compound 82, N-((4-((5-chloropyridin-2-yl)oxy)-3-methylphenyl)carbamoyl)-2-methoxycyclopropane-1-carboxamide] | – | – | – | Inactive | –
COC12CC(C(=O)NC(=O)Nc3ccc(Oc4nccs4)c(C)c3)(C1)C2 [Compound 83, 3-methoxy-N-((3-methyl-4-(thiazol-2-yloxy)phenyl)carbamoyl)bicyclo[1.1.1]pentane-1-carboxamide] | – | – | 0.33 | – | –
COC12CC(C(=O)NC(=O)Nc3ccc(Oc4ccc(F)cn4)c(C)c3)(C1)C2 [Compound 89, N-((4-((5-fluoropyridin-2-yl)oxy)-3-methylphenyl)carbamoyl)-3-methoxybicyclo[1.1.1]pentane-1-carboxamide] | – | – | 0.2 | – | –
